In US6407103B2, “Indeno [1,2-c] pyrazol-4-ones and their uses” (Bristol-Myers Squibb Pharma Company, priority 1998, dated 2002):

Row | SMILES | melting point [°C]
1 | Cn1ccc(-c2[nH]nc3c2C(=O)c2c(NC(N)=O)cccc2-3)c1 [Example LXXXVIX, 3-(1-methyl-3-pyrrolyl)-5-(carbamoylamino)indeno[1,2-c]pyrazol-4-one] | 269
2 | CCC(=O)Nc1cccc2c1C(=O)c1c-2n[nH]c1-c1ccc(OC)cc1 [Example V, 3-(4-methoxyphenyl)-5-(propanamido)indeno[1,2-c]pyrazol-4-one] | 287
3 | COc1ccc(-c2[nH]nc3c2C(=O)c2c(NC(=O)C4CCCC4)cccc2-3)cc1 [Example VI, 3-(4-methoxyphenyl)-5-(cyclopentanecarboxamido)indeno[1,2-c]pyrazol-4-one] | 267
4 | COc1ccc(-c2[nH]nc3c2C(=O)c2c(NC(=O)C4CCC4)cccc2-3)cc1 [Example VII, 3-(4-methoxyphenyl)-5-(cyclobutanecarboxamido)indeno[1,2-c]pyrazol-4-one] | 297
5 | COc1ccc(-c2[nH]nc3c2C(=O)c2c(NC(=O)Cc4ccccc4)cccc2-3)cc1 [Example VIII, 3-(4-methoxyphenyl)-5-(phenylacetamido)indeno[1,2-c]pyrazol-4-one] | 280
6 | COc1ccc(-c2[nH]nc3c2C(=O)c2c(NC(=O)Cc4ccc(Cl)cc4)cccc2-3)cc1 [Example X, 3-(4-methoxyphenyl)-5-((4-chlorophenyl)acetamido)indeno[1,2-c]pyrazol-4-one] | 238
7 | CC(=O)Nc1cccc2c1C(=O)c1c-2n[nH]c1-c1sccc1C [Example XC, 3-(3-methyl-2-thienyl)-5-(acetamido)indeno[1,2-c]pyrazol-4-one] | 275
8 | CCc1[nH]nc2c1C(=O)c1c(NC(N)=O)cccc1-2 [Example XCI, 3-(ethyl)-5-(carbamoylamino)indeno[1,2-c]pyrazol-4-one] | > 250
9 | CCCc1[nH]nc2c1C(=O)c1c(NC(N)=O)cccc1-2 [Example XCII, 3-(n-propyl)-5-(carbamoylamino)indeno[1,2-c]pyrazol-4-one] | 187
10 | CC(C)c1[nH]nc2c1C(=O)c1c(NC(N)=O)cccc1-2 [Example XCIII, 3-(i-propyl)-5-(carbamoylamino)indeno[1,2-c]pyrazol-4-one] | > 250
11 | CCOC(=O)c1ccc(-c2[nH]nc3c2C(=O)c2c(NC(N)=O)cccc2-3)s1 [Example XCIX, 3-(5-carboethoxy-2-thienyl)-5-(carbamoylamino)indeno[1,2-c]pyrazol-4-one] | > 280
12 | Cc1ccsc1-c1[nH]nc2c1C(=O)c1c(NC(N)=O)cccc1-2 [Example XCVII, 3-(3-methyl-2-thienyl)-5-(carbamoylamino)indeno[1,2-c]pyrazol-4-one] | 270
13 | Cc1ccc(-c2[nH]nc3c2C(=O)c2c(NC(N)=O)cccc2-3)s1 [Example XCVIII, 3-(5-methyl-2-thienyl)-5-(carbamoylamino)indeno[1,2-c]pyrazol-4-one] | > 280
14 | COc1ccc(-c2[nH]nc3c2C(=O)c2c(NC(=O)Cc4cccc(OC)c4)cccc2-3)cc1 [Example XI, 3-(4-methoxyphenyl)-5-((3-methoxyphenyl)acetamido)indeno[1,2-c]pyrazol-4-one] | > 300
15 | COc1ccc(CC(=O)Nc2cccc3c2C(=O)c2c-3n[nH]c2-c2ccc(OC)cc2)cc1 [Example XII, 3-(4-methoxyphenyl)-5-((4-methoxyphenyl)acetamido)indeno[1,2-c]pyrazol-4-one] | 280
16 | COc1ccc(-c2[nH]nc3c2C(=O)c2c(NC(=O)Cc4ccc(OC)c(OC)c4)cccc2-3)cc1 [Example XIII, 3-(4-methoxyphenyl)-5-((3,4-dimethoxyphenyl)acetamido)indeno[1,2-c]pyrazol-4-one] | > 300
17 | COc1ccc(-c2[nH]nc3c2C(=O)c2c(NC(=O)Cc4cc(OC)ccc4OC)cccc2-3)cc1 [Example XIV, 3-(4-methoxyphenyl)-5-((2,5-dimethoxyphenyl)acetamido)indeno[1,2-c]pyrazol-4-one] | 226
18 | COc1ccc(-c2[nH]nc3c2C(=O)c2c(NC(=O)Cc4ccccc4OC)cccc2-3)cc1 [Example XIX, 3-(4-methoxyphenyl)-5-((2-methoxyphenyl)acetamido)indeno[1,2-c]pyrazol-4-one] | 255

Further lines, results first:

Row | melting point [°C] | SMILES
19 | > 300 | COc1ccc(-c2[nH]nc3c2C(=O)c2c(NC(=O)Cc4ccc(N=[N+]=[N-])cc4)cccc2-3)cc1 [Example XL, 3-(4-methoxyphenyl)-5-((4-azidophenyl)acetamido)indeno[1,2-c]pyrazol-4-one]
20 | 283 | COc1ccc(-c2[nH]nc3c2C(=O)c2c(NC(=O)Cc4ccc(N)cc4)cccc2-3)cc1 [Example XLI, 3-(4-methoxyphenyl)-5-((4-aminophenyl)acetamido)indeno[1,2-c]pyrazol-4-one]
21 | > 300 | COc1ccc(-c2[nH]nc3c2C(=O)c2c(NC(=O)Nc4ccccc4)cccc2-3)cc1 [Example XLII, 3-(4-methoxyphenyl)-5-((phenylcarbamoyl)amino)indeno [1,2-c]pyrazol-4-one]
22 | > 300 | CC(=O)Nc1cccc2c1C(=O)c1c-2n[nH]c1-c1ccncc1 [Example XLIX, 3-(4-pyridyl)-5-(acetamido)indeno [1,2-c]pyrazol-4-one]
23 | > 300 | CC(=O)Nc1cccc2c1C(=O)c1c-2n[nH]c1-c1ccc(O)cc1 [Example XLVI, 3-(4-hydroxyphenyl)-5-(acetamido)indeno[1,2-c]pyrazol-4-one]
24 | 280 | COc1ccc(-c2[nH]nc3c2C(=O)c2c(NC=O)cccc2-3)cc1 [Example XLVII, 3-(4-methoxyphenyl)-5-(formamido)indeno[1,2-c]pyrazol-4-one]
25 | > 300 | CC(=O)Nc1cccc2c1C(=O)c1c-2n[nH]c1-c1cccnc1 [Example XLVIII, 3-(3-pyridyl)-5-(acetamido)indeno [1,2-c]pyrazol-4-one]
26 | 276 | COc1ccccc1-c1[nH]nc2c1C(=O)c1c(NC(C)=O)cccc1-2 [Example XV, 3-(2-methoxyphenyl)-5-(acetamido)indeno[1,2-c]pyrazol-4-one]
27 | > 300 | COc1ccc(-c2[nH]nc3c2C(=O)c2c(NC(C)=O)cccc2-3)cc1OC [Example XVI, 3-(3,4-dimethoxyphenyl)-5-(acetamido)indeno[1,2-c]pyrazol-4-one]
28 | 300 | COc1ccc(-c2[nH]nc3c2C(=O)c2c(NC(=O)Cc4ccccc4Cl)cccc2-3)cc1 [Example XXII, 3-(4-methoxyphenyl)-5-((2-chlorophenyl)acetamido)indeno[1,2-c]pyrazol-4-one]
29 | > 300 | COc1ccc(-c2[nH]nc3c2C(=O)c2c(NC(=O)CN)cccc2-3)cc1 [Example XXIII, 3-(4-methoxyphenyl)-5-(aminoacetamido)indeno[1,2-c]pyrazol-4-one]
30 | 243 | COc1ccc(-c2[nH]nc3c2C(=O)c2c(NC(=O)CNCCO)cccc2-3)cc1 [Example XXIV, 3-(4-methoxyphenyl)-5-((2-hydroxyethyl)aminoacetamido)indeno[1,2-c]pyrazol-4-one]
31 | 291 | COc1ccc(-c2[nH]nc3c2C(=O)c2c(NC(=O)CN4CCCCC4)cccc2-3)cc1 [Example XXIX, 3-(4-methoxyphenyl)-5-(piperidinoacetamido)indeno[1,2-c]pyrazol-4-one]
32 | 277 | COc1ccc(-c2[nH]nc3c2C(=O)c2c(NC(=O)CN4CCNCC4)cccc2-3)cc1 [Example XXVI, 3-(4-methoxyphenyl)-5-(piperazinoacetamido)indeno[1,2-c]pyrazol-4-one]
33 | > 300 | COc1ccc(-c2[nH]nc3c2C(=O)c2c(NC(=O)CN4CCN(C)CC4)cccc2-3)cc1 [Example XXVII, 3-(4-methoxyphenyl)-5-(4-methylpiperazinoacetamido)indeno[1,2-c]pyrazol-4-one]
34 | > 300 | COc1ccc(-c2[nH]nc3c2C(=O)c2c(NC(=O)CN4CCN(CCO)CC4)cccc2-3)cc1 [Example XXVIII, 3-(4-methoxyphenyl)-5-(4-(2-hydroxyethyl)piperazinoacetamido)indeno[1,2-c]pyrazol-4-one]
35 | > 300 | COc1ccc(-c2[nH]nc3c2C(=O)c2c(NC(=O)CN4CCC(CN)CC4)cccc2-3)cc1 [Example XXX, 3-(4-methoxyphenyl)-5-(4-(aminomethyl)piperidinoacetamido)indeno[1,2-c]pyrazol-4-one]
36 | 250 | CCNCC(=O)Nc1cccc2c1C(=O)c1c-2n[nH]c1-c1ccc(OC)cc1 [Example XXXI, 3-(4-methoxyphenyl)-5-(ethylaminoacetamido)indeno[1,2-c]pyrazol-4-one]
37 | 298 | COc1ccc(-c2[nH]nc3c2C(=O)c2c(NC(=O)CN4CCSCC4)cccc2-3)cc1 [Example XXXII, 3-(4-methoxyphenyl)-5-(thiomorpholinoacetamido)indeno[1,2-c]pyrazol-4-one]
38 | 295 | COc1ccc(-c2[nH]nc3c2C(=O)c2c(NC(=O)CN4CCOCC4)cccc2-3)cc1 [Example XXXIII, 3-(4-methoxyphenyl)-5-(morpholinoacetamido)indeno[1,2-c]pyrazol-4-one]
39 | 279 | COc1ccc(-c2[nH]nc3c2C(=O)c2c(NC(=O)CN4CCCC4)cccc2-3)cc1 [Example XXXIV, 3-(4-methoxyphenyl)-5-(pyrrolidinoacetamido)indeno[1,2-c]pyrazol-4-one]
40 | > 300 | COc1ccc(-c2[nH]nc3c2C(=O)c2c(NC(=O)Cc4ccc(NC(=O)CN(C)C)cc4)cccc2-3)cc1 [Example XXXIX, 3-(4-methoxyphenyl)-5-((4-((N,N-dimethylamino)methylcarbonylamino)phenyl)acetamido) indeno[1,2-c]pyrazol-4-one]
41 | 268 | COc1ccc(-c2[nH]nc3c2C(=O)c2c(NC(=O)Cc4ccc(NC(C)=O)cc4)cccc2-3)cc1 [Example XXXVI, 3-(4-methoxyphenyl)-5-((4-acetamidophenyl)acetamido)indeno[1,2-c]pyrazol-4-one]
42 | 257 | COC(=O)Nc1ccc(CC(=O)Nc2cccc3c2C(=O)c2c-3n[nH]c2-c2ccc(OC)cc2)cc1 [Example XXXVII, 3-(4-methoxyphenyl)-5-((4-(methoxycarbonylamino)phenyl)acetamido) indeno[1,2-c]pyrazol-4-one]
